Data as given in ChEMBL document CHEMBL1138857, “Quinol-4-ones as steroid A-ring mimetics in nonsteroidal dissociated glucocorticoid agonists” (J Med Chem, 2006).

Assays:
Glucocorticoid receptor = biological target: T1, Glucocorticoid receptor (Homo sapiens, UniProt P04150)
T1 sequence (P04150 whole entry): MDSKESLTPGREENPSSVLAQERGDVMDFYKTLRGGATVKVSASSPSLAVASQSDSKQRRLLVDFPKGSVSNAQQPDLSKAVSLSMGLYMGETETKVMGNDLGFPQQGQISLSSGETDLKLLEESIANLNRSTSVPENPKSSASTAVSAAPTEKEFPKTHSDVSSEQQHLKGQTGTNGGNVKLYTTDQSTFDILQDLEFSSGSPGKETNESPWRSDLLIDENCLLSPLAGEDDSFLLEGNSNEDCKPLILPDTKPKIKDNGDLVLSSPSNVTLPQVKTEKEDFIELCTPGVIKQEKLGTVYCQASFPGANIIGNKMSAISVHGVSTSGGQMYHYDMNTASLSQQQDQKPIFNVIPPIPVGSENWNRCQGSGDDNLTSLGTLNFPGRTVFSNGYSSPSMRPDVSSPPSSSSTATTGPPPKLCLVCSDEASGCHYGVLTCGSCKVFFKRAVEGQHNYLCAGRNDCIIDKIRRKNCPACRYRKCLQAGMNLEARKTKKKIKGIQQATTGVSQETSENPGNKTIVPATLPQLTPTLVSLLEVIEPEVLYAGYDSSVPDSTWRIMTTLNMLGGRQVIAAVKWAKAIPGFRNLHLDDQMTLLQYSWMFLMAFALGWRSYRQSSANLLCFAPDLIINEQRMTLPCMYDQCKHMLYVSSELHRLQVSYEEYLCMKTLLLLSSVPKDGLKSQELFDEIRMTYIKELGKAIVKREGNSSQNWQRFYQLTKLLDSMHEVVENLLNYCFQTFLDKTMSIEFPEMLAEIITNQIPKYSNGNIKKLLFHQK

Progesterone receptor = biological target: T2, Progesterone receptor (Homo sapiens, UniProt P06401); assay: Inhibition of tetramethylrhodamine labeled RU486 binding to PR by FP assay
T2 sequence (P06401 whole entry): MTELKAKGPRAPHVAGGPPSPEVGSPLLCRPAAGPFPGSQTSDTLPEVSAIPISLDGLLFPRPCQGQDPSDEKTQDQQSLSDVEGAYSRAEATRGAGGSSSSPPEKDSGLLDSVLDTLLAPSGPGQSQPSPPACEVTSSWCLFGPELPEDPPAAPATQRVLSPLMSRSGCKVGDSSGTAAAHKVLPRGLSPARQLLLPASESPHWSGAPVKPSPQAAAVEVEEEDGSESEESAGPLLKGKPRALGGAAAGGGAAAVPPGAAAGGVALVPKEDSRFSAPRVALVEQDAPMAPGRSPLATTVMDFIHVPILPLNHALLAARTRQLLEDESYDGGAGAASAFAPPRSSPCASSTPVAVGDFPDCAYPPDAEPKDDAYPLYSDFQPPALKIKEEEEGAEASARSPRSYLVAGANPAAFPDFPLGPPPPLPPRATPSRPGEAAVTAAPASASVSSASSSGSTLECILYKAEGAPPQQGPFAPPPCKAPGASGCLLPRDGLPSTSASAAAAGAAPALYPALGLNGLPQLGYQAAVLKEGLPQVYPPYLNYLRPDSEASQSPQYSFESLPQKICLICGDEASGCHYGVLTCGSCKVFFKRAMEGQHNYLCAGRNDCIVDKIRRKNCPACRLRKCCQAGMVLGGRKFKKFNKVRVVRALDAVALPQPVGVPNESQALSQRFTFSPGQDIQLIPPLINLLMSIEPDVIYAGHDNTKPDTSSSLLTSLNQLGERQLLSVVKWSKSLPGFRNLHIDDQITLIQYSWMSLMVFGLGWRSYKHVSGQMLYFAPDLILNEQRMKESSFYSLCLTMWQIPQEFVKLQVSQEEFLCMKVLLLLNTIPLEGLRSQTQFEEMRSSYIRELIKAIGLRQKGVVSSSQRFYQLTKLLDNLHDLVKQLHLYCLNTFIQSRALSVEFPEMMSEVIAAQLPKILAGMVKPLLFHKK

HFF [1] = assay: Induction of aromatase activity in HFF cells assessed as production of beta estradiol by aromatase assay; type: functional, cell-based; conditions: Homo sapiens
HFF [2] = assay: Induction of aromatase activity in HFF cells assessed as production of beta estradiol by aromatase assay relative to Dexamethasone; type: functional, Homo sapiens
HFF [3] = assay: Inhibition of IL1-stimulated IL6 production in HFF cells relative to Dexamethasone; type: functional, Homo sapiens
[4] = biological target: T3, Mineralocorticoid receptor (Homo sapiens, UniProt P08235); assay: Inhibition of tetramethylrhodamine labeled dexamethasone binding to MR by FP assay
T3 sequence (P08235 whole entry): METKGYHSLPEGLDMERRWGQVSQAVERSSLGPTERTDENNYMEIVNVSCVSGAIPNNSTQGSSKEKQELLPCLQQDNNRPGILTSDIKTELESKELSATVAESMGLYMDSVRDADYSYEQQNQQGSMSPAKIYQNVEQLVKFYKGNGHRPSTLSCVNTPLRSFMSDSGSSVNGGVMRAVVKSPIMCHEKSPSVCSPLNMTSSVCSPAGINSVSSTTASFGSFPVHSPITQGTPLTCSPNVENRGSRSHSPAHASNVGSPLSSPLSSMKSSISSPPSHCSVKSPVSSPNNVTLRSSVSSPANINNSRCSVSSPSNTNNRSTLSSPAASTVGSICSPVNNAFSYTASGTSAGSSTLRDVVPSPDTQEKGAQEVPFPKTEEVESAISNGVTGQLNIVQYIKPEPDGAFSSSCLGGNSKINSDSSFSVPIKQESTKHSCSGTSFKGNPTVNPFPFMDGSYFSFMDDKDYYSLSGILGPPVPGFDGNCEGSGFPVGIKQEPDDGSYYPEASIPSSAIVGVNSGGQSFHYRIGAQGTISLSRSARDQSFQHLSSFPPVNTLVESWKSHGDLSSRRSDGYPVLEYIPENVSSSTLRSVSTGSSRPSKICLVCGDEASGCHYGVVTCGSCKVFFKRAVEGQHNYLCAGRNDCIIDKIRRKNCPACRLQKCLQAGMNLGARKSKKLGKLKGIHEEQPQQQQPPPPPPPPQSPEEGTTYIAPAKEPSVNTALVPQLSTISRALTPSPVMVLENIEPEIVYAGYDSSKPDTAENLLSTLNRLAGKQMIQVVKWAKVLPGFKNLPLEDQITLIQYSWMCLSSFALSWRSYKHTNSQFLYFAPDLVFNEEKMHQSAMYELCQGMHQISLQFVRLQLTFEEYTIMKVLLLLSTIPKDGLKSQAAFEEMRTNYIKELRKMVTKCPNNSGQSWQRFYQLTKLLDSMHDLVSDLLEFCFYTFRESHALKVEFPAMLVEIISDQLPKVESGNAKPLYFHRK

Homo sapiens = organism: Homo sapiens; assay: Ratio of IC50 for GR to PR
HFF [5] = assay: Inhibition of IL1-stimulated IL6 production in HFF cells; type: functional, cell-based; conditions: Homo sapiens
HeLa [6] = assay: Activation of MMTV in HeLa cells measured by luciferase activity; type: functional, cell-based; conditions: Homo sapiens
HeLa [7] = assay: Activation of MMTV in HeLa cells measured by luciferase activity relative to Dexamethasone; type: functional, Homo sapiens
Mus musculus [8] = assay: Inhibition of LPS-stimulated TNFalpha production in BALB/c mouse at 10 mg/kg, po; type: functional
Mus musculus [9] = assay: Inhibition of LPS-stimulated TNFalpha production in BALB/c mouse at 3 mg/kg, po; conditions: read-out: Inhibition

Structure (SMILES) | IC50 (Glucocorticoid receptor) [nM] | IC50 (Progesterone receptor) [nM] | EC50 (HFF [1]) [nM] | Efficacy (HFF [2]) [%] | Efficacy (HFF [3]) [%] | IC50 [4] [nM] | Ratio IC50 (Homo sapiens) | IC50 (HFF [5]) [nM] | EC50 (HeLa [6]) [nM] | Efficacy (HeLa [7]) [%] | inhibition in vivo at 10 mg/kg (Mus musculus [8]) [%] | inhibition in vivo at 3 mg/kg (Mus musculus [9]) [%]
COc1ccc(F)cc1C(C)(C)CC(O)(CN1C[C@@H](C)C(=O)[C@@H](C)C1)C(F)(F)F (some centres not stated) | 10 | > 2000 | 240 | 93 | 89 | 430 | > 75 | 75 |  |  |  | 
Cc1ccc(F)cc1C(C)(C)CC(O)(Cn1ccc(=O)c2ccccc21)C(F)(F)F (configuration not stated) | 10 | 240 |  | 22 | 66 | 120 |  | 34 | > 2000 | 2 | 50 | 
COc1ccc(F)cc1C(C)(C)CC(O)(CN1C[C@@H](C)O[C@@H](C)C1)C(F)(F)F (some centres not stated) | 38 | > 2000 |  |  | 72 | 450 | > 75 | 270 |  |  |  | 
COc1ccc(F)cc1C(C)(C)CC(O)(CN1CCOc2ccccc21)C(F)(F)F (configuration not stated) | 15 | 640 |  |  | 25 | 310 | < 50 | 600 |  |  |  | 
Cc1ccccc1C(C)(C)CC(O)(Cn1ccc(=O)c2ccccc21)C(F)(F)F (configuration not stated) | 22 | 240 | > 2000 | 29 | 63 | 150 |  | 61 | > 2000 | 1 | 36 | 
COc1ccc(F)cc1C(C)(C)CC(O)(CN1CCC(=O)c2ccccc21)C(F)(F)F (configuration not stated) | 4 | 90 |  |  | 72 | 130 | < 50 | 110 |  |  |  | 
C[C@]12C=CC(=O)C=C1CC[C@@H]1[C@@H]2[C@@H](O)C[C@@]2(C)[C@H]1CC[C@]2(O)C(=O)CO [PREDNISOLONE] |  |  | 19 | 92 | 96 |  |  | 6.6 | 16 | 91 |  | 84
COc1ccc(F)cc1C(C)(C)CC(O)(Cn1ccc(=O)c2ccccc21)C(F)(F)F (configuration not stated) | 10 | 475 | 220 | 67 | 82 | 120 | < 50 | 27 | > 2000 | 10 |  | 
CC(C)(CC(O)(Cn1ccc(=O)c2ccccc21)C(F)(F)F)c1cc(F)ccc1O (configuration not stated) | 5 | 960 | 14 | 74 | 92 | 580 |  | 6 | 37 | 20 | 55 | 
